≈ marks a conversion by molar mass, not a printed value. Entries after “also recorded” stand apart in the source; their conditions may differ.
Columns and labels:
[1] = Rat pharmacokinetics, IV and PO; assay type: in vivo
Procedure: Mannoside compounds FIM-4269, FIM-5240, FIM-5254, FIM-1CJ82 and FIM-1CJ66 (FIG. 3) were evaluated for pharmacokinetics in the rat. Mannosides were dose IV at 3 mg/kg and PO at 10 mg/kg. Urine and plasma were collected at 15 min, 30 min, 1 hour, 2 hours, 4 hours and 8 hours.

[2] = Mouse oral PK, mannoside concentration in urine; assay type: in vivo; settings: mice, 50 mg/kg oral; for detectability in urine: samples at 1, 3, 6 and 8 hours
Procedure: Compounds ZFH-4269 (FIG. 6A), ZFH-5254 (FIG. 6B), ZFH5240 (FIG. 6C), and a Prodrug were dosed at 50 mg/kg and plasma and urine samples were taken at 1, 3, 6 and 8 hours after dosing. […] Taken together, the high oral bioavailability and in vivo efficacy observed in animal studies support mannosides as promising therapeutic candidates for UTI treatment/prevention.
For intraperitoneal dosing, 50 μl of a 2 mg/ml (5 mg/kg) or 4 mg/ml (10 mg/kg) solution of ZFH-2056 in PBS was injected into the peritoneal cavity of the mouse. For oral dosing, 100 μl of a 20 mg/ml (100 mg/kg) solution of ZFH-2056 in 8% DMSO was inoculated with a gavage needle into the mouse stomach. Urine was collected at 30 min, 1, 2, 3, 4, 6, and 8 h post-treatment. An equal volume of 10 μM internal standard (ZFH-2050) was added to the urine. Mannosides were extracted from the urine by loading on C18 columns (100 mg, Waters), washing with 30% methanol, and eluting with 60% methanol. Vacuum-concentrated eluates were analyzed using liquid chromatography-mass spectrometry system30 with a lower heated capillary temperature of 190° C. and a gradiert as follows: Solvent B (80% acetonitrile in 0.1% formic acid) was held constant at 5% for 5 minutes, increased to 44% B by 45 minutes, and then to a 95% B by 65 minutes. SRM mode quantification was performed with collision gas energy of 30% for the following MS/MS transitions (precursor m/z/product m/z): compound ZFH-2056, 447/285; compound ZFH-2050, 390/228. Absolute quantification was achieved by comparison to a calibration curve.

UTI89 [3] = assay: Mouse model of acute UTI, bladder bacterial CFU after UTI89 infection; assay type: in vivo, Escherichia coli; settings: for total bacterial CFUs in the bladder: mice, 6 hpi
Procedure: The efficacy of in vivo mannoside treatment was evaluated after orally dosing animals with 50 mg/kg of mannosides ZFH-4269 (FIG. 1A), ZFH-5254 (FIG. 1B) and ZFH-5240 (FIG. 1C) or DMSO or PBS 30 min prior to infecting with UTI89. At 6 hours post-infection (hpi) the bladders were removed and total bacterial CFUs were quantitated. […] Next, analogs of 254 were evaluated in the same mouse model of urinary tract infection. Animals were orally dosed with 25 mg/kg of mannosides ZFH-4269 (FIG. 2A), 1CJ68 (FIG. 2B) and 1CJ70 (FIG. 2C) in 10% cyclodextrin or 10% cyclodextrin 30 min prior to infecting with UT189.
The efficacy of in vivo mannoside treatment was evaluated after orally dosing animals with 25 mg/kg of mannosides ZFH269, Prodrug FIM-4269, ZFH-5254, and ZFH-5240 in 10% cyclodextrin or 10% cyclodextrin 30 min prior to infecting with UTI89. At 6 hours post-infection (hpi) the bladders were removed and total bacterial CFUs were quantitated. […] Next, several different prodrugs were evaluated in the same mouse model of urinary tract infection. Animals were orally dosed with 25 mg/kg of mannosides ZFH-4269, prodrug FIM-1233 (FIG. 8B), prodrug FIM-6123 (FIG. 8C) and prodrug 269 in 10% cyclodextrin or 10% cyclodextrin 30 min prior to infecting with UT189.
(§1) The FimH-mannose interaction was further investigated in an effort to develop potential ligand-based antagonists of UTIs. […] The non-reducing Man4 anchors into the mannose-binding pocket while the GlcNAc folds over Thr51 allowing specific interactions with a hydrophobic tyrosine gate. Heptyl mannoside mimics the GlcNAc tail of oligomannose-3 and extends it further to increase interactions outside the binding pocket resulting in high affinity binding (Kd=5 nM). Based on the high affinity of heptyl mannose for FimH, the ability of heptyl mannose to reduce bacterial infection in our mouse model of UTI was tested. First, biofilm formation as a surrogate for IBCs formed in the bladder was evaluated. […] Thus, UPEC strain UTI89 was incubated with heptyl mannose prior to inoculation into the bladders of mice.
Bacteria were grown under type 1 pili-inducing conditions (2×24 h at 37° C. statically in LB). The bacteria were harvested and resuspended to an OD600 of 0.5 in PBS. Eight-week-old C3H/HeN (Harlan) female mice were anesthetized by inhalation of isoflurane and infected via transurethral catheterization with […] of the bacterial suspension, resulting in 1-2×10^7 inoculum. At 6 hpi, mice were sacrificed by cervical dislocation under anesthesia and the bladders were immediately harvested and processed as described below. All animal studies using mice were approved by the Animal Studies Committee of Washington University (Animal Protocol Number 20100002).
Mannoside ZFH-2056 was administered either IP (5 mg/kg) or orally (100 mg/kg) 30 min prior to inoculation with UTI89. To enumerate the bacteria present, mice were sacrificed at 6 hpi and bladders were aseptically removed and homogenized in 1 ml PBS, serially diluted and plated onto LB agar plates. CFU was enumerated after 16 h of growth at 37° C.

FimH [4] = target: T1, FimH (Escherichia coli, UniProt P08191); assay: Hemagglutination inhibition (HAI) assay, guinea pig red blood cells; assay type: cell-based, E. coli; settings: concentration inhibiting >90% hemagglutination of guinea pig red blood cells
T1 construct: endogenous in cells; host or cells: type 1 piliated uropathogenic E. coli (UPEC)
T1 sequence (P08191 22-300): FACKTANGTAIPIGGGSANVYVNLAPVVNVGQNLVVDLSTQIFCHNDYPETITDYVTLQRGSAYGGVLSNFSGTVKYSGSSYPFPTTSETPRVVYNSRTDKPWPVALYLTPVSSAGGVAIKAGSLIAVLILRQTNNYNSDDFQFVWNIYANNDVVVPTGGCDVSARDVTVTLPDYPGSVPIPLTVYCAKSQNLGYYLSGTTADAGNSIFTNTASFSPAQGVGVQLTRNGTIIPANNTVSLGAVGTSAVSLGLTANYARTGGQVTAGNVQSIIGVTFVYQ
Procedure: FIG. 15 depicts the hemagglutination assay (HA) used to assess the compounds' ability to block FimH mediated binding. The HAI titer quantitatively measure the effect of inhibitors on blocking the FimH-mediated hemagglutination (HA) of guinea pig red blood cell infected with E. coli.
In some embodiments, activity of the compound is measured using hemmagglutination titer of guinea pig red blood cells. Hemagglutination of guinea pig red blood cells by type1 piliated UPEC is dependent upon FimH mannose binding ability and serial dilutions allow a quantitative analysis.
Hemagglutination assays for mannose-sensitive agglutination of guinea pig red blood cells were performed as previously described.

FimH [5] = target: T1, FimH; assay: Binding affinity to FimH; set-up: species or system E. coli
Procedure: as §1

UPEC biofilm formation = assay: Biofilm assay; assay type: cell-based, Escherichia coli; settings: 1 mM
Procedure: as §1
UTI89 was grown in LB broth in wells of PVC microtiter plates at 23° C. in the presence of individual mannosides at varying concentrations. After 48 h of growth, wells were rinsed with water and stained with crystal violet for quantification as described. For biofilm disruption activity in PVC plates, UTI89 was grown in LB broth in wells of PVC microtiter plates at 23° C. After 24 h of growth, mannoside was added and biofilms were grown for an additional 16 h. Wells were then rinsed, stained with crystal violet and quantified. […]

UTI89 [6] = assay: microbe, parasite or virus in culture; settings: Escherichia coli
PBC-1 = assay: Growth curve / MIC in TMP-SMZ, PBC-1; assay type: cell-based; settings: Escherichia coli; PBC-1, growth curves in TMP-SMZ; read-out: Minimum Inhibition Concentration (MIC)
Procedure: (§2) Mice were IP treated with 6 30 min prior to inoculation with bacteria and compared to a control group of untreated animals. After inoculation with UTI89 or PBC-1, bacterial CFUs were quantified at 6 hpi.
Mannoside ZFH-2056 was added at 100 μM. Growth curves were performed in a 96-well plate at 37° C. with A600 readings taken every 30 min for 8 h.

[7] = mice, after 3 days of 54 μg/ml TMP and 270 μg/ml SMZ in drinking water
Procedure: as §2
Water was changed daily for 3 days prior to inoculation with UTI89.

UTI89 [8] = assay: UTI89 biofilm formation in urine under flow; assay type: cell-based, Escherichia coli; settings: 1% in urine under flow
Text: To investigate the potential therapeutic effects of mannosides on CAUTI, we first assessed the inhibitory effects of methyl-a-D-mannopyranoside (methyl mannose), on UTI89 biofilm formation in urine under flow.

[9] = 25 mg/kg oral in 10% cyclodextrin 30 min prior to infecting with UTI89

CNC(=O)c1cccc(-c2ccc([C@@H](O)C3OC(CO)C(O)C(O)C3O)c(C)c2)c1 (single isomer, unassigned) [Example 18A]
time plasma concentration remained above the limit of detection ([1]; IV 3 mg/kg): 2.5 h | mean plasma concentration / PK after IV dose ([1]; IV 3 mg/kg, listed as FIM-5240, 3 mg/kg): the highest relative to the other 4 mannosides; also recorded: best PK | pharmacokinetics after PO dose ([1]; PO 10 mg/kg): best pharmacokinetics relative to the other mannosides | time at which plasma concentration fell below the limit of detection ([1]; PO 10 mg/kg): 2 h | detectability in urine [2]: detectable in the urine out to 8 hours post-treatment | level of concentration in the urine ([2]; within a 6-hour period): consistently maintained a high level of concentration in the urine | total bacterial CFUs in the bladder (UTI89 [3]; [9]): drop in bacterial counts | total bacterial CFUs in the bladder (UTI89 [3]; 50 mg/kg oral 30 min prior to infecting with UTI89, vs DMSO or PBS, listed as 240, 50 mg/kg): reduced bacterial titers in the bladder relative to DMSO and PBS | total bacterial CFUs in the bladder (UTI89 [3]; 50 mg/kg oral 30 min prior to infecting with UTI89, vs DMSO or PBS, listed as ZFH-5240, 50 mg/kg): drop in bacterial counts | HAI Titer EC>90 (FimH [4]): 0.031 µM

Cc1cc(-c2ccc3cc[nH]c(=O)c3c2)ccc1O[C@H]1O[C@@H](CO)[C@@H](O)[C@H](O)[C@H]1O [Example 7, 7-[3-methyl-4-[(2R,3R,4S,5S,6S)-3,4,5-trihydroxy-6-(hydroxymethyl)tetrahydropyran-2-yl]oxy-phenyl]-2H-isoquinolin-1-one]
detectability in urine [2]: detectable in the urine out to 8 hours post-treatment | total bacterial CFUs in the bladder (UTI89 [3]; [9]): drop in bacterial counts | total bacterial CFUs in the bladder (UTI89 [3]; 50 mg/kg oral 30 min prior to infecting with UTI89, vs DMSO or PBS, listed as 254, 50 mg/kg): reduced bacterial titers in the bladder relative to DMSO and PBS | total bacterial CFUs in the bladder (UTI89 [3]; 50 mg/kg oral 30 min prior to infecting with UTI89, vs DMSO or PBS, listed as ZFH-5254, 50 mg/kg): drop in bacterial counts | HAI Titer EC>90 (FimH [4]): 0.030 µM

CCCCCCCO[C@H]1O[C@H](CO)[C@@H](O)[C@H](O)[C@@H]1O [Heptyl mannoside]
virulence in mouse model of UTI (UTI89 [3]; UTI89 incubated with 5 mM compound prior to inoculation into bladders, 6 hours post-infection): significant attenuation of virulence | Kd (FimH [5]): 5 nM | UPEC biofilm formation in vitro (UPEC biofilm formation): inhibited UPEC biofilm formation

Cc1cc(NS(=O)(=O)c2ccc(N)cc2)no1 [SMZ, Sulfamethoxazole]
MIC (UTI89 [6]): 0.25 µg/mL (≈ 0.987 µM) | MIC (PBC-1): 1280 µg/mL (≈ 5050 µM)

COc1cc(Cc2cnc(N)nc2N)cc(OC)c1OC [TMP, Trimethoprim]
MIC (UTI89 [6]): 0.05 µg/mL (≈ 0.172 µM) | TMP concentration in urine [7]: 9.95 ± 4.36 mg/mL | MIC (PBC-1): 256 µg/mL (≈ 882 µM)

CNC(=O)c1cccc(-c2ccc(O[C@H]3O[C@@H](CO)[C@@H](O)[C@H](O)[C@H]3O)c(C)c2)c1 [ZFH-4269, N-methyl-3-[3-methyl-4-[(2R,3R,4S,5S,6S)-3,4,5-trihydroxy-6-(hydroxymethyl)tetrahydropyran-2-yl]oxy-phenyl]benzamide]
detectability in urine [2]: detectable in the urine out to 8 hours post-treatment | bladder titers (UTI89 [3]; acute UTI model (FIG. 27D)): significantly reduce bladder titers | total bacterial CFUs in the bladder (UTI89 [3]; 25 mg/kg oral in 10% cyclodextrin 30 min prior to infecting with UTI89, 25 mg/kg): drop in bacterial counts | total bacterial CFUs in the bladder (UTI89 [3]; 25 mg/kg oral in 10% cyclodextrin 30 min prior to infecting with UTI89, listed as ZFH269, 25 mg/kg): drop in bacterial counts; also recorded: most efficiently reduced bacterial titers in the bladder; also recorded: significantly reduced bacterial titers in the bladder | total bacterial CFUs in the bladder (UTI89 [3]; 50 mg/kg oral 30 min prior to infecting with UTI89, vs DMSO or PBS, 50 mg/kg): drop in bacterial counts | total bacterial CFUs in the bladder (UTI89 [3]; 50 mg/kg oral 30 min prior to infecting with UTI89, vs DMSO or PBS, listed as 269, 50 mg/kg): reduced bacterial titers in the bladder relative to DMSO and PBS

CO[C@H]1O[C@H](CO)[C@@H](O)[C@H](O)[C@@H]1O [methyl mannose, methyl-a-D-mannopyranoside]
biofilm-adherent cells (UTI89 [8]; p=0.0012 vs untreated): significantly reduced | biofilm biomass (UTI89 [8]; p=0.0022 vs untreated): significantly reduced

Source: patent publication US9957289B2, “Compounds and methods for treating bacterial infections” (Washington University, priority 2013, dated 2018)
